We go through two compounds from patent publication US12071436B2, “Anti-parasitic compounds and uses thereof” (Memorial Sloan-Kettering Cancer Center, priority 2016, dated 2024).

Read-outs that look alike come from different tables or passages of the source.

A short description of series [1]: Metabolic stability in mice liver microsomes (MLM), 0.25 mg/mL. Format: in vitro ADME. Particulars: mouse, pH 7.4, 1 μM compound, 0.25 mg/mL microsomes, NADPH, read-out: microsomal stability (t1/2, mouse): 0.25 mg/mL hepatic microsomes. As for the experimental part: To evaluate the metabolic stability of compounds 21 and 37 in mice liver microsomes (MLM), a 1120 μL aliquot of potassium phosphate buffer (50 mM, pH 7.4) containing mice liver microsomes (0.357 mg/mL) was added to individual 2 mL tubes (final concentration 0.25 mg/mL). Imipramine in MLM was run as positive controls. Test compounds (compound 21 or compound 37) and positive control compounds (1 mM DMSO stocks) were directly spiked into respective tubes to prepare a concentration of 1.428 μM (final concentration 1 μM). From the above mix, 70 μL was added to individual wells of 96 well reaction plates and pre-incubated in a 37° C. water bath for 5 min. All the reactions were initiated by adding 30 μL of 3.33 mM NADPH (final concentration 1 mM). Reactions without NADPH and heat inactivated microsomes minus NADPH (0 min and 60 min) were also incubated to rule out non-NADPH metabolism or chemical instability in the incubation buffer. All reactions were terminated using 100 μL of ice-cold acetonitrile containing internal standard (glipizide—2 μM) at 0, 5, 15 and 60 min. The plates were centrifuged at 4000 RPM for 15 min and 100 μL aliquots were submitted for analysis by LC-M/MS. Samples were monitored for parent compound disappearance in Multiple reaction monitoring (MRM) mode using LC-MS/MS.
For orientation: Liver microsomes are vesicles of endoplasmic reticulum, rich in cytochrome P450 enzymes.

A short description of series [2]: Caco-2 bi-directional permeability. Format: in vitro ADME. Particulars: human, Caco-2, pH 7.4. As for the experimental part: To evaluate the bi-directional Caco-2 permeability of compounds 21 and 37, Caco-2 cells were grown in Dulbecco's Modified Eagle Medium (DMEM) (20% Fetal bovine serum (FBS)) until 85-90% confluence. After attaining required confluence, cells were trypsinized and seeded into 24 well millcell plates at a density of 0.6×10^5 cells/insert. The plates were maintained for 21 days at 37° C. in CO2 incubator with change of medium every alternative day. Monolayer integrity was monitored by measuring Trans-epithelial electrical resistance (TEER) from day 15. Caco-2 cell monolayer was washed twice with HBSS and incubated for 30 min in CO2 incubator. TEER values were measured and wells showing TEER values above 230 ohms·cm2 were taken for experiments. Bi-directional permeability study was initiated by adding appropriate volume of HBSS containing the test compounds or probe P-gp substrate loperamide to either the apical (A-B transport) or basal side (B-A transport) of the monolayer. At selected time points (0, 15, 30, 60 and 90 mins) an aliquot of 50 μL was collected from the receiver compartment for determination of test compound concentrations. The volume withdrawn was replaced immediately with plain HBSS buffer (pH 7.4). TEER was measure at the end of the experiment to test the post experiment monolayer integrity. […]
(In general: Passage across Caco-2 layers is used to estimate intestinal permeability.)

Series [3] in a line: Plasma protein binding by equilibrium dialysis. Format: in vitro ADME. As to conditions: mouse, 37° C. How it is done: To evaluate the plasma protein binding of selected compounds, equilibrium dialysis was used. All samples of the selected compounds were tested in triplicate using the RED Rapid Equilibrium Dialysis Device (Thermo Scientific). The initial drug concentration in the plasma chamber was 5 μM and phosphate buffered saline was added to the receiver chamber. The plate was covered and allowed to shake in a 37° C. incubator for 6 hours. 25 μl was sampled from the plasma and PBS chambers which were then diluted with either blank PBS or plasma to achieve a 1:1 ratio or plasma:PBS for all samples. The concentration of drug in the plasma and PBS chambers were determined by LC-MS/MS. The fraction bound was calculated as ([plasma]−[PBS])/[plasma].
On the technique in general: Equilibrium dialysis compares concentrations on both sides of a semipermeable membrane.

In the next series the test system is HepG2. The series is described as follows: Cytotoxicity screening in HepG2 (CellTiter Glo, fluorescence microscopy). Particulars: Homo sapiens, 48 hours. Type of series: cell-based. As for the experimental part:
To evaluate the cytotoxicity of selected compounds, cell viability assays (CellTiter Glo) were conducted. Each compound (compound 21 or compound 37) was plated in triplicate starting at their respective stock concentration. They were serially diluted column-wise for ten 3× dilutions using DMSO as the diluent. Staurosporine was used as positive control for DRC (dose response curve), and was plated starting at 1.25 mM. This plate was used as a source plate to make the assay plates by transferring 0.1 μl into 25 μl assay volume to reach the right working concentration for each compound. HepG2 and MRC5 were plated at a density of 1500 cells/25 μl in well in the assay plate and allowed to settle overnight. 0.1 μL of compounds was then transferred from the source plate, into the cell assay plates. The cells were left to incubate with the compounds for 48 hours, after which, 25 μL of Promega Cell Titer-Glo was added to each well, and allowed to incubate at room temperature with shaking for 20 minutes. RLU's (Relative Light Units) for each well were then recorded on a BioTek Synergy NEO. Fluorescence microscopy was also used to evaluate the cytotoxicity of selected compounds. Cells were plated at a density of 1500 cells/25 μl in well in a 384 wells plate the day before incubation with the drugs. The following day, 0.1 μl of the source plate are added to the assay plate. Then, 25 μl of a fluorophores mixture containing Hoechst 33342, Syto17 diluted in Eagle's Minimum Essential Medium (EMEM) was added to each well. Plates are read after 48 hours of incubation in the ImageXpress instrument (Molecular Devices) using the appropriate filters.

Setting [4] is: read-out: HepG2 IC50, Cell Count.
[5] abbreviates: read-out: HepG2 IC50, Cellular ATP.
[6] abbreviates: read-out: HepG2 IC50, Membrane Integrity.

On to `CN(C)CC#Cc1cccc(-c2nc(C(=O)NCc3ccc4c(c3)OCO4)cc3c2[C@@H](CCO)N([S@+]([O-])C(C)(C)C)C3)c1` [compound 21, (R)-N-(Benzo[d][1,3]dioxol-5-ylmethyl)-2-((R)-tert-butylsulfinyl)-4-(3-(3-(dimethyl-amino)prop-1-yn-1-yl)phenyl)-3-(2-hydroxyethyl)-2,3-dihydro-1H-pyrrolo[3,4-c]pyridine-6-carboxamide], for which the half-life at 1 μM in series [1] was determined as 46 min. In series [2], the efflux ratio – broadly, a quotient of directional permeabilities that is used to spot active efflux – at 90 min was determined as 24.9. Also, in series [3], the fraction unbound (as a rule, free concentration divided by total concentration) at 6 h, 5 μM was 0.045. Moreover, the IC50 – broadly, the point on the concentration scale where inhibition reaches its midpoint – came out at 51.3 µM in the series on HepG2 (setting [4]), 52.5 µM with HepG2 (setting [5]) and 62.1 µM with HepG2 (setting [6]).

`CN(C)CC#Cc1cccc(-c2nc(C(=O)N[C@@H]3CCN(Cc4ccccc4)C3)cc3c2[C@@H](CCO)N([S@+]([O-])C(C)(C)C)C3)c1` [compound 37, (R)-N-((R)-1-Benzylpyrrolidin-3-yl)-2-((R)-tert-butylsulfinyl)-4-(3-(3-(dimethylamino)prop-1-yn-1-yl)phenyl)-3-(2-hydroxyethyl)-2,3-dihydro-1H-pyrrolo[3,4-c]pyridine-6-carboxamide]: the half-life at 1 μM in series [1] worked out at 13 min. Also, the efflux ratio at 90 min in series [2] was 13.2. The compound further showed a fraction unbound at 6 h, 5 μM in series [3] of 0.081. The results for the IC50 in the series with HepG2 (setting [4]), with HepG2 (setting [5]) and with HepG2 (setting [6]) were 56.2 µM, 54.2 µM and 90.6 µM, respectively.
